Assays:
Assay in all cases: relative viability (nuclei count vs DMSO), 5 days (fraction); higher = more cells survive
[1] = compound: COc1cccc2cc(-c3nc([C@H]4CC[C@H](C(=O)O)CC4)n4ncnc(N)c34)[nH]c12 [OSI-027] + Cc1cc(Nc2cc(N3CCN(C)CC3)nc(Sc3ccc(NC(=O)C4CC4)cc3)n2)n[nH]1 [Tozasertib] (partner 0.1 µM)
In short: (§1)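 A single step with final 0.05% Triton X-100, 1% formaldehyde and 1 ug/ml Hoechst fixed the cells and stained nuclei 5 days after treatment. Lung cancer cell lines in 1536-well plates had been treated by pin tool the day after seeding with one drug alone or a fixed anchor-drug dose plus five library-drug doses (not always all listed) in √10 steps, and nuclei were counted on 4× images. Relative viability is the ratio of nuclei in treated wells to nuclei in vehicle wells, taken as the median of duplicate plates.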

[2] = compound: Cc1nc(NC(=O)N2CCC[C@H]2C(N)=O)sc1-c1ccnc(C(C)(C)C(F)(F)F)c1 [Alpelisib] + C[C@]1(O)C[C@@H](c2nc(-c3ccc4ccc(-c5ccccc5)nc4c3)c3c(N)nccn32)C1 [Linsitinib] (partner 1 µM)
In short: as §1

[3] = compound: Cc1nc(NC(=O)N2CCC[C@H]2C(N)=O)sc1-c1ccnc(C(C)(C)C(F)(F)F)c1 [Alpelisib] + Cc1nc(Nc2ncc(C(=O)Nc3c(C)cccc3Cl)s2)cc(N2CCN(CCO)CC2)n1 [Dasatinib] (partner 0.075 µM)
In short: as §1

[4] = compound: CCCS(=O)(=O)Nc1ccc(F)c(C(=O)c2c[nH]c3ncc(-c4ccc(Cl)cc4)cc23)c1F [Vemurafenib] + CC(=O)c1c(C)c2cnc(Nc3ccc(N4CCNCC4)cn3)nc2n(C2CCCC2)c1=O [Palbociclib] (partner 0.5 µM)
In short: as §1

## UMC-11
[1]; first compound 0.01 µM
  relative viability: 0.235
[1]; first compound 0.03162 µM
  relative viability: 0.208
[1]; first compound 0.1 µM
  relative viability: 0.203
[1]; first compound 0.3162 µM
  relative viability: 0.204
[1]; first compound 1 µM
  relative viability: 0.2
[2]; first compound 0.04 µM
  relative viability: 0.953
[2]; first compound 0.1265 µM
  relative viability: 1.03
[2]; first compound 0.4 µM
  relative viability: 1.09
[2]; first compound 1.265 µM
  relative viability: 0.995
[2]; first compound 4 µM
  relative viability: 0.955
[3]; first compound 0.04 µM
  relative viability: 0.426
[3]; first compound 0.1265 µM
  relative viability: 0.501
[3]; first compound 0.4 µM
  relative viability: 0.537
[3]; first compound 1.265 µM
  relative viability: 0.455
[3]; first compound 4 µM
  relative viability: 0.473
[4]; first compound 0.03162 µM
  relative viability: 0.328
[4]; first compound 0.1 µM
  relative viability: 0.313
[4]; first compound 1 µM
  relative viability: 0.315
